Values of other authors in patent publication US5240711A, “Transdermal therapeutic system comprising as active component buprenorphine” (LTS Lohmann Therapie-Systeme GmbH & Co. KG, priority 1989, dated 1993).

SMILES: CO[C@]12CC[C@@]3(C[C@@H]1[C@](C)(O)C(C)(C)C)[C@H]1Cc4ccc(O)c5c4[C@@]3(CCN1CC1CC1)[C@H]2O5 [buprenorphine, 17-(cyclopropylmethyl)-α-(1,1-dimethylethyl)-4,5-epoxy-18,19-dihydro-3-hydroxy-6-methoxy-α-methyl-6,14-ethenomorphinane-7-methanol]
- penetration through the human skin (human skin): only badly penetrates through the human skin
- solubility in conventional organic solvents and water: very slight solubility
